{
  "source": "patent US20060073516A1",
  "about": "“Novel screening method” (priority 2002, published 2006)",
  "key": {"[1]": {"target": "T1, rCB7T084 (Rattus norvegicus, UniProt Q7TN41, R55S)", "T1 construct": "expressed in transfected cells; host or cells: CHO cells", "T1 sequence (Q7TN41 1-319 R55S)": "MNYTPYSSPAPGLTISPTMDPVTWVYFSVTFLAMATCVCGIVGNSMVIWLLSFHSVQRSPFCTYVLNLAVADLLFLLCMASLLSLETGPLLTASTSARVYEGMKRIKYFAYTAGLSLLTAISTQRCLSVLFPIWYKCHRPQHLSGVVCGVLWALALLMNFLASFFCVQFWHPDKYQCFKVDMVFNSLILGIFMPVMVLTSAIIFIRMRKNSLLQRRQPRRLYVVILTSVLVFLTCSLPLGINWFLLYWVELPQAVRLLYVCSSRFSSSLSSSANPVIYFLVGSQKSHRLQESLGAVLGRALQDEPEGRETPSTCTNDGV", "assay": "Suppression of forskolin-increased intracellular cAMP level in rCB7T084-expressed CHO cells", "assay_type": "cell-based", "settings": "1 μM forskolin, ligand 1.0×10^−3 M-3.0×10^−7 M, compared to mock CHO cells (FIG. 6, FIG. 7)", "experimental": "(§1) The TGR7- and rCB7T084-expressed CHO cells were washed with assay medium (HBSS (GibcoBRL) supplemented with 0.1% bovine serum albumin and 0.2 mM IBMX). Thereafter, the cells were incubated at 37° C. for 30 minutes under 5% CO2 conditions. β-Alanine (1.0×10^−3 M-3.0×10^−7 M) and L-carnosine (1.0×10^−3 M-3.0×10^−7 M) diluted with the assay medium in various concentrations were added and forskokin was then added thereto in 1 μM. The cells were incubated at 37° C. for 30 minutes under 5% CO2 conditions. The culture supernatant was discarded and the intracellular cAMP level was determined on a plate reader (ARVO multi-label counter, Wallac, Inc.), following the protocol of cAMP Screen Kit (Applied Biosystems, Inc.)."}, "[2]": {"target": "T2, TGR7 (Homo sapiens, UniProt Q8TDS7)", "T2 sequence (Q8TDS7 whole entry)": "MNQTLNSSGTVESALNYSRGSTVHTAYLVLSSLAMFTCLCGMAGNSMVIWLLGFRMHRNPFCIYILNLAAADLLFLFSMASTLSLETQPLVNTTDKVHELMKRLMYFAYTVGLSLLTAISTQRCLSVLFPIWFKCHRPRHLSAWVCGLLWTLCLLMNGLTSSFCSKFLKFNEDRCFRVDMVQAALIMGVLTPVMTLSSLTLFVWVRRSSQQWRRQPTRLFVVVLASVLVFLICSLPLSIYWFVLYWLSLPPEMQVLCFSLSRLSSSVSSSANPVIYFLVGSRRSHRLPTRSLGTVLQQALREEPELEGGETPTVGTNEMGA", "assay": "Suppression of forskolin-increased intracellular cAMP level in TGR7-expressed CHO cells", "assay_type": "cell-based", "set-up": "expressed in transfected cells; host or cells: CHO cells", "settings": "1 μM forskolin, ligand 1.0×10^−3 M-3.0×10^−7 M, compared to mock CHO cells (FIG. 6, FIG. 7)", "experimental": "as §1"}, "[3]": {"test_system": "CHO-K1 cells into which the expression vector alone was introduced", "settings": "control CHO-K1 cells, expression vector alone (no insert); FLIPR (FIG. 3)", "experimental": "(§2) The CHO-K1 cell line was cultured in HAM F-12 medium (Invitrogen) containing 10% fetal calf serum (Invitrogen), unless otherwise indicated. A day before transfection, 4.5×10^5 cells per 10 cm^2 were plated, followed by incubation in a CO2 incubator adjusted to a concentration of 5% CO2 at 37° C. for at least 15 hours. Using Lipofectamine reagent (Invitrogen), transfection was carried out by modifications of the method attached to the reagent. When a 6-well plate was used for the incubation, the following procedures were performed. First, 2 tubes each having a 1.5 ml volume were prepared and 100 μl each of Opti-MEM medium (Invitrogen) was dispensed in each tube. Next, 1 μg of the expression vector was charged in one tube and in another tube, 6 μl of Lipofectamine reagent was charged, which were mixed together. The mixture was settled for 20 minutes at room temperature. To the solution, 800 μl of Opti-MEM medium was added and the resulting solution mixture for transfection was added to the CHO-K1 cells, which had been previously washed with Opti-MEM medium. Then, the cells were incubated in a CO2 incubator for 6 hours. After the incubation, the cells were rinsed with PBS (Invitrogen), then scraped using 0.05% trypsin-EDTA solution (Invitrogen) and recovered by centrifugal operation. The cells obtained were counted and diluted to 5×10^4 cells per 200 μl of the medium. The dilution was dispensed onto a Black walled 96-well plate (Costar) in 200 μl each per well, followed by incubation overnight in a CO2 incubator. Various test samples were added to the CHO-K1 cells in which the receptor was transiently expressed by the transfection operation described above, whereby changes in the intracellular calcium ion level were determined using FLIPR (Molecular Device). In order to determine the changes in the intracellular calcium ion level on FLIPR, the cells were pre-teated by the following procedures. […] Following the pre-treatment above, changes in intracellular calcium level after addition of various test samples were measured on FLIPR."}, "[4]": {"target": "T2, TGR7", "settings": "β-alanine added in 10^−4 M to 10^−5 M; CHO-K1 cells expressing human TGR7; FLIPR, Fluo-3AM (FIG. 1)", "experimental": "as §2"}, "[5]": {"target": "rat rCB7T084 (Rattus norvegicus, UniProt Q7TN41, R55S)", "settings": "β-alanine added in 10^−4 M to 10^−5 M; CHO-K1 cells expressing rat rCB7T084; FLIPR, Fluo-3AM (FIG. 2)", "experimental": "as §2"}},
  "data": [
    {"smiles": "NCCC(=O)N[C@@H](Cc1cnc[nH]1)C(=O)O", "note": "[L-carnosine]", "values": [
      {"measurement": "decrease of the intracellular cAMP level increased by forskolin addition", "setting": "[1]", "value": "dose-dependent and specific decrease"},
      {"measurement": "decrease of the intracellular cAMP level increased by forskolin addition", "setting": "[2]", "value": "dose-dependent and specific decrease"}
    ]},
    {"smiles": "NCCC(=O)O", "note": "[β-alanine]", "values": [
      {"measurement": "response (increase in the intracellular calcium level)", "setting": "[3]", "value": "such response was not observed"},
      {"measurement": "response (increase in the intracellular calcium level)", "setting": "[4]", "value": "specifically responsive"},
      {"measurement": "response (increase in the intracellular calcium level)", "setting": "[5]", "value": "specifically responsive"},
      {"measurement": "decrease of the intracellular cAMP level increased by forskolin addition", "setting": "[1]", "value": "dose-dependent and specific decrease"},
      {"measurement": "decrease of the intracellular cAMP level increased by forskolin addition", "setting": "[2]", "value": "dose-dependent and specific decrease"}
    ]}
  ]
}
